How the values were obtained:
STEP = biological target: T1, STEP (Homo sapiens, UniProt P54829); assay: Second order rate of inactivation of STEP; format: biochemical; details: no GSH added; quadruplicate, mean ± S.D.
T1 sequence (P54829 1-565): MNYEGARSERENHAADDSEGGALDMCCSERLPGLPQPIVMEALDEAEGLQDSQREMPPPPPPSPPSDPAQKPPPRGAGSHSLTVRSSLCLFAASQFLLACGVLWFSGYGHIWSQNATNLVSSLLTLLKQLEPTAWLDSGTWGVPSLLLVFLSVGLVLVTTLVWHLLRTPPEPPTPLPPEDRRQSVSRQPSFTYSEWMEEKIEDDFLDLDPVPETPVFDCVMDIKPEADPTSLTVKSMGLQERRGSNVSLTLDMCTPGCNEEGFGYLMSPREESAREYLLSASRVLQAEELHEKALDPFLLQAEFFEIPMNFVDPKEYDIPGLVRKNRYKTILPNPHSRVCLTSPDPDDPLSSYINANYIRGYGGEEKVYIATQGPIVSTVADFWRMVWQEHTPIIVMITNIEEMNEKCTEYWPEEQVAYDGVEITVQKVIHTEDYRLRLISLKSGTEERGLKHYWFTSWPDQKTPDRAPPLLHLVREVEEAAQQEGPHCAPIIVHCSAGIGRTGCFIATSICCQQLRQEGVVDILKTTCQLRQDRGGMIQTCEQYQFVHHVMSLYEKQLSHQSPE

[1] = test system: Alzheimer's disease (AD) mice; details: novel object recognition and Morris water maze tests, ref [4]; cited from earlier work
rat cortical neurons = details: ref [4]; cited from earlier work

Kinact/Ki (STEP)	Structure (SMILES)	cognitive deficits [1]	phosphorylation levels of STEP substrates GluN2B, Pyk2 and ERK1/2 (rat cortical neurons)
161,000 ± 26,000 M^-1S^-1	O=C(Nc1cc(C(F)(F)F)cc2c1SSSSS2)C(F)(F)F [Compound 23]		
	Cl.Nc1cc(C(F)(F)F)cc2c1SSSSS2 [TC-2153, 8-(trifluoromethyl)-1,2,3,4,5-benzopentathiepin-6-amine hydrochloride]	reduced cognitive deficits	enhanced the phosphorylation levels

Reference: PMC4334692 (Bioorganic & medicinal chemistry letters, 2015)
